Data set [1] addresses T1, human 5-HT(2C) (INI) receptor (Homo sapiens, UniProt P28335).
T1 construct: expressed in transfected cells
T1 sequence (P28335 33-458): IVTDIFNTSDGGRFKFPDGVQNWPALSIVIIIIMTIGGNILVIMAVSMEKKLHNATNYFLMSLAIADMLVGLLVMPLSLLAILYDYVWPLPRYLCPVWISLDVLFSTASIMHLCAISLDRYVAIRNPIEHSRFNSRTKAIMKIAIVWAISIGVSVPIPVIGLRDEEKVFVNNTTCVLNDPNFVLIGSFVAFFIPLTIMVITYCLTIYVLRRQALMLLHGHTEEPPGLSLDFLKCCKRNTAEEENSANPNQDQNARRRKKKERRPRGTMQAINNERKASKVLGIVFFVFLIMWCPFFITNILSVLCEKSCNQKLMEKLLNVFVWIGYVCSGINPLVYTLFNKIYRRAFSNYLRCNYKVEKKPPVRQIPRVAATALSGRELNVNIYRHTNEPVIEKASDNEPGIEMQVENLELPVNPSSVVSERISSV
Put plainly: Calcium flux assay, stably transfected HEK-293 cells, 5-HT2C. It is filed as cell-based. As to conditions: Table 2, second section; for Emax 2C/2A / Emax 2C/2B: Emax ratio; for 5-HT2C % Max ± SEM: percent of maximal activation by 5-HT.

The next data set has as its target 5-HT(2A) receptor (Homo sapiens, UniProt P28223). The data set is described as follows: cell-based. It is filed as cell-based. On the set-up: expressed in transfected cells. The following applies: for EC50: Table 2, second section (second screening campaign), NA: Emax ≦ 12%; for 5-HT2A % Max ± SEM: Table 2, second section, percent of maximal activation by 5-HT, activation at 10 μM for compounds without EC50 value.

The target in data set [2] is T2, 5-HT(2B) receptor (Homo sapiens, UniProt P41595). Put plainly: Calcium flux assay, stably transfected HEK-293 cells, 5-HT2B. The data set is classed as cell-based. Also noted: expressed in transfected cells. The following applies: Table 2, second section; for 5-HT2B % Max ± SEM: percent of maximal activation by 5-HT, activation at 10 μM for compounds without EC50 value. On the technique in general: Calcium assays in cells follow changes in intracellular calcium, usually with a dye or a luminescent sensor.
T2 sequence (P41595 whole entry): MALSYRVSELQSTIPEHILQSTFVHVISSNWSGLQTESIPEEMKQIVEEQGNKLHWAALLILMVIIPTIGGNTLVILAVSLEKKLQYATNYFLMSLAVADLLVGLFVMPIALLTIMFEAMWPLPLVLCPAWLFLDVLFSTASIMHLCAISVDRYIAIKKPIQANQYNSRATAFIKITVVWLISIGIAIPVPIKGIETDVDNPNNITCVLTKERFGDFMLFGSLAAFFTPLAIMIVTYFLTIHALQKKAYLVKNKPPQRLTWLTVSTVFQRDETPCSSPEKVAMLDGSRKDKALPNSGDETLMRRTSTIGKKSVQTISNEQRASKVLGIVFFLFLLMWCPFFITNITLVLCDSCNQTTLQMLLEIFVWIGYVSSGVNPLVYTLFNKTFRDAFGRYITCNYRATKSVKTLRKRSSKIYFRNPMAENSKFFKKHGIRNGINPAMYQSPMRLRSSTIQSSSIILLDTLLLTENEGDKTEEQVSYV

In data set [3] the target is T2, 5-HT(2B) receptor. The data set is described as follows: 5-HT(2B) antagonism, shift of 5-HT concentration curve in calcium flux experiments, Schild analysis.
A further data set deals with CYP2C9 (Homo sapiens, UniProt P11712). Put plainly: Recombinant CYP inhibition, CYP2C9. The following applies: recombinant CYP2C9, probe tolbutamide, substrate tolbutamide, recombinant enzyme, read-out: % Inhibition at 10 μM, CYP 2C9. It is filed as in vitro ADME.
CYP2C9, sequence (P11712 whole entry): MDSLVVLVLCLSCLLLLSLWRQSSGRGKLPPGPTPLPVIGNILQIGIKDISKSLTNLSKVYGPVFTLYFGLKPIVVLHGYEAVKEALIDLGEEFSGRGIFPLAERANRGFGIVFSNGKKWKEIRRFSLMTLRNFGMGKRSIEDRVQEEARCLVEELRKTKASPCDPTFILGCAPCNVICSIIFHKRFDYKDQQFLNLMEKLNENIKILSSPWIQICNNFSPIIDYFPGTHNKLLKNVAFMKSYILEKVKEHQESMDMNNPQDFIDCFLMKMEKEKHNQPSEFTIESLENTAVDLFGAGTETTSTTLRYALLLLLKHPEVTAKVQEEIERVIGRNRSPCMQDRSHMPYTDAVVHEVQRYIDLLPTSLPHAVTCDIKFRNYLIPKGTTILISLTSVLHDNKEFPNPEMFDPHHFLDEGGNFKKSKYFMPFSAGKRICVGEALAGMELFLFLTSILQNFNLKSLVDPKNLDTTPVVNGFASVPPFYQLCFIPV
Another data set deals with CYP2D6 (Homo sapiens, UniProt P10635). Put plainly: Recombinant CYP inhibition, CYP2D6. It is filed as in vitro ADME. As to conditions: recombinant CYP2D6, probe dextromethorphan, substrate dextromethorphan, recombinant enzyme, read-out: % Inhibition at 10 μM, CYP 2D6.
CYP2D6, sequence (P10635 whole entry): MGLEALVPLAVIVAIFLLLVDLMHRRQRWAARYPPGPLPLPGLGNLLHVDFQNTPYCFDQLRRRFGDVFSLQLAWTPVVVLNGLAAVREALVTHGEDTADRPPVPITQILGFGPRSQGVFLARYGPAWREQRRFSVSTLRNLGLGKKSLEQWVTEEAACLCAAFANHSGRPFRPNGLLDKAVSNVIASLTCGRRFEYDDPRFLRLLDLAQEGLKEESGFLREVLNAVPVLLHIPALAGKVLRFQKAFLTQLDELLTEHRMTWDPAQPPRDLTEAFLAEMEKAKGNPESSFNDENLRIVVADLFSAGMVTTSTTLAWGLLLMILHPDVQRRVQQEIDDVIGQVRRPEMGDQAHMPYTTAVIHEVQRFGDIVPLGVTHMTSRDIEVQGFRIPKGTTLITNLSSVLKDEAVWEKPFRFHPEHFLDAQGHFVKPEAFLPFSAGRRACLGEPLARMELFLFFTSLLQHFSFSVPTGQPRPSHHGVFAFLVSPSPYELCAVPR
Another data set addresses CYP3A4 (Homo sapiens, UniProt P08684). Put plainly: Recombinant CYP inhibition, CYP3A4. The data set is classed as in vitro ADME. As to conditions: recombinant enzyme, read-out: % Inhibition at 10 μM, CYP 3A4.
The nature of data set [4]: Stability in liver microsomes, human. The data set is classed as in vitro ADME. As to conditions: NADPH, 37° C. (In general: Liver microsomes are vesicles of endoplasmic reticulum, rich in cytochrome P450 enzymes.)
Data set [5] is described as follows: Stability in liver microsomes, rat. The following applies: NADPH, 37° C. The data set is classed as in vitro ADME. Here is the method: Stability in Liver Microsomes. For each sample to be investigated, the following was mixed: microsomes (50 μL, 0.5 mg/mL), MgCl2 solution (50 μL, 50 mM), phosphate buffer (250 μL, 100 mM), water (95 μL), test compound (+)-12 (5 μL, 200 μM). Verapamil was tested as a positive control. The reaction was performed at 37° C. and initiated by the addition of NADPH (50 μL, 10 mM) or, for the negative control, by the addition of water (50 μL). Aliquots of 50 μL were taken form the solution after 0, 15, 30, 45, and 60 minutes and the reaction stopped by the addition of 150 μL cold methanol to the aliquot. The samples were centrifuged (16000 rpm, 10 min). 100 μL supernatant was used for LC-MS-MS investigation. All incubations were performed in duplicate. Separation of the sample components was performed on a Waters ACQUITY UPLC C18 (2.1 mm×50 mm) column, using mobile phase mixtures between 0.1% formic acid in MeCN and 0.1% formic acid in water (elution rate 0.5 mL/min, column temperature 25° C.). […] The in vitro intrinsic clearance (in vitro CLint) was calculated according to: in vitro CLint=(0.693/t1/2)×(volume of incubation (μL)/amount of proteins (mg)).

Data set [6] has as its system PCP-disrupted PPI in mice. The data set is described as follows: Prepulse inhibition (PPI) animal study, PCP-disrupted PPI. The following applies: PCP 6 mg/kg i.p.
The conditions of data set [7]: 10-60 mg/kg, behavioral assay, reference (15); cited from earlier work.

We go through five compounds from patent US8754132B2 (The Board of Trustees of the University of Illinois, priority 2010, dated 2014).

One may read the EC50 as the midpoint of the concentration-response curve. Broadly, the Kb is the affinity of an antagonist, worked out from how it opposes an agonist. What is called inhibition is the relative decrease from the control value, in per cent.

Counter-ions that a name gives are not always drawn. Like-named read-outs stand apart in the source and are kept apart here.

5-HT(2A) receptor, sequence (P28223 whole entry): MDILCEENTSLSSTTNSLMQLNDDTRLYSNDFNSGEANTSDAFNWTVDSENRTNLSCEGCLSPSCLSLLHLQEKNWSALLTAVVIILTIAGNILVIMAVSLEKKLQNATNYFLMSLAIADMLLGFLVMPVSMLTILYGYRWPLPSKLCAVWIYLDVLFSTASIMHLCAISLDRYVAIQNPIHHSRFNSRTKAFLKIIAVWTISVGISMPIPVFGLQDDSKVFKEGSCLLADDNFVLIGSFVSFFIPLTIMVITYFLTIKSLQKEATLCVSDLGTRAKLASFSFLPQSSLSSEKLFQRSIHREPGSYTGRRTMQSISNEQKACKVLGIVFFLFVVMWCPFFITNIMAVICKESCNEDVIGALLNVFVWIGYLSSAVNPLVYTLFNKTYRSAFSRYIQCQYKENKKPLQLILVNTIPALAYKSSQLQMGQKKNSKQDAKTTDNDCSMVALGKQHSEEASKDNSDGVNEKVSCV
CYP3A4, sequence (P08684 whole entry): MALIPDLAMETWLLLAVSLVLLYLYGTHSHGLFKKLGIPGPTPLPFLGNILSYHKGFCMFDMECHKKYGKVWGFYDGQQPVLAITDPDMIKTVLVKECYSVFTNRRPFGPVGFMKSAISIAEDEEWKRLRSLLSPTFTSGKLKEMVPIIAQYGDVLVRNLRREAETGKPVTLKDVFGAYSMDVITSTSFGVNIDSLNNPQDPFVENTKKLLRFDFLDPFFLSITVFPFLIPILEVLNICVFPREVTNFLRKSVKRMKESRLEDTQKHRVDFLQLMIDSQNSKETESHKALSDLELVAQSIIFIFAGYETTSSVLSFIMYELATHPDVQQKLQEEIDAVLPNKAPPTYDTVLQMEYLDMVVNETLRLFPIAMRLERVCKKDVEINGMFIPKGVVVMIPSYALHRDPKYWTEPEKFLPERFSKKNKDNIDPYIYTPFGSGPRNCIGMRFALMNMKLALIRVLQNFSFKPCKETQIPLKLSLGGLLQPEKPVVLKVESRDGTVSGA

`NCC1CC1c1cc(F)ccc1OCC1CC1` [(+)-12, (+)-trans-(S,S)-[2-(2-Cyclopropylmethyloxy-5-fluorophenyl)cyclopropyl]methylamine Hydrochloride]: the EC50 in [1] (read-out: 5-HT2C EC50 ± SEM) came out at 21 nM; on 5-HT(2A) receptor (read-out: 5-HT2A EC50 ± SEM) it was 894 nM; on 5-HT(2B) receptor [2] (NA: Emax ≦ 12%, read-out: 5-HT2B EC50 ± SEM), 289 nM. Further, at 5-HT(2B) receptor [3], the Kb was 3160 nM.

Take `NC[C@H]1C[C@@H]1c1cc(F)ccc1OCC1CC1` [(+)-12, (+)-trans-(S,S)-[2-(2-Cyclopropylmethyloxy-5-fluorophenyl)cyclopropyl]methylamine Hydrochloride]: the “Selectivity 2A/2C” value in data set [1] (EC50 ratio) turned out to be 42. The “Selectivity 2B/2C” value in [1] (EC50 ratio) is given as 14. In addition, the “Emax 2C/2A” value in data set [1] turned out to be 2.5. In [1], the “Emax 2C/2B” value is given as 3.4. Besides, in data set [1], the “5-HT2C % Max ± SEM” value is 71% ±. Further, the inhibition at 20 min, 10 µM on CYP2C9 is 19.6%; at CYP2D6, 27%. Moreover, the inhibition at 5 min, 10 µM at CYP3A4 (recombinant CYP3A4, probe midazolam, substrate midazolam) is 21.7%; at CYP3A4 (recombinant CYP3A4, probe testosterone, substrate testosterone), 25.1%. The “Microsomal stability (% remaining), human” value in data set [4] worked out at 90.50%. Besides, the “Microsomal stability (% remaining), rat” value in data set [5] came to 66.03%. The “5-HT2A % Max ± SEM” value on 5-HT(2A) receptor was 29% ±. The “5-HT2B % Max ± SEM” value on 5-HT(2B) receptor [2] is 21% ±. In addition, the “normalization of PCP-disrupted PPI” value in [6] (5 mg/kg dose level) is “still effective”; in [6] (10 mg/kg) it was “able to normalize PCP-disrupted PPI”.

With `Nc1ccc(S(=O)(=O)Nc2ccnn2-c2ccccc2)cc1` [sulfaphenazole, reference compound], the inhibition at 20 min, 10 µM on CYP2C9 was 94.7%.

`NC[C@H]1C[C@@H]1c1cc(O)ccc1OCC1CC1` [(+)-18, (+)-trans-(S,S)-[2-(2-Cyclopropylmethyloxy-5-hydroxyphenyl)cyclopropyl]methylamine Hydrochloride]: in data set [1] (5-HT2C EC50 ± SEM), the EC50 turned out to be 9.3 nM. Also, in data set [1] (EC50 ratio), the “Selectivity 2A/2C” value is 40. Moreover, in data set [1], the “Emax 2C/2A” value amounted to 3.9, the “Emax 2C/2B” value was 11 and the “5-HT2C % Max ± SEM” value is listed as 70% ±. In addition, the EC50 at 5-HT(2A) receptor (5-HT2A EC50 ± SEM) came to 372 nM. Further, the “5-HT2A % Max ± SEM” value on 5-HT(2A) receptor is listed as 18% ±. Further, the “5-HT2B % Max ± SEM” value on 5-HT(2B) receptor [2] is on record as 6% ±. Further, the “normalization of PCP-disrupted PPI” value in [6] (10 mg/kg) was “able to normalize PCP-disrupted PPI”. Also, the “pA2 (±SEM), Schild analysis” value at 5-HT(2B) receptor [3] (5-HT(2B) antagonism against 5-HT, calcium flux, n=3) is on record as 5.79±0.07.

For `Cc1cccc(C2CC2CN)c1` (stereo not shown) [Compound 1], in data set [7], the antidepressant-like effects result is reported as “moderate antidepressant-like effects”.
